The source of these data is article PMC3921447, “Homologous and heterologous desensitization of guanylyl cyclase-B signaling in GH3 somatolactotropes” (Cell and Tissue Research, 2013).

The subject of one assay is GC-A and GC-B receptors. The settings on record: prolonged exposure; ref Fan et al. [2005]; Dickey et al. [2011]; cited from earlier work. An excerpt: Pharmacological regulation of the GC-B receptor has been elegantly described through many studies by Potter and Hunter ([1998a], [1999]) who have shown that dephosphorylation of specific serine and threonine residues of the GC-B receptor leads to rapid homologous desensitization. In keeping with the extensive literature describing the regulation of GC-A receptors (Potter et al. [2006]), enhancement of protein kinase C (PKC) activity leads to heterologous desensitization (Potter and Hunter [2000]).

The target in another assay is T1, GC-A (Rattus norvegicus, UniProt P18910).
T1 construct: Evidence of homologous desensitization of endogenous GC-A- and GC-B-mediated signaling in GH3 cells; endogenous in cells; host or cells: GH3 rat somatolactotrope cells
T1 sequence (P18910 29-1057): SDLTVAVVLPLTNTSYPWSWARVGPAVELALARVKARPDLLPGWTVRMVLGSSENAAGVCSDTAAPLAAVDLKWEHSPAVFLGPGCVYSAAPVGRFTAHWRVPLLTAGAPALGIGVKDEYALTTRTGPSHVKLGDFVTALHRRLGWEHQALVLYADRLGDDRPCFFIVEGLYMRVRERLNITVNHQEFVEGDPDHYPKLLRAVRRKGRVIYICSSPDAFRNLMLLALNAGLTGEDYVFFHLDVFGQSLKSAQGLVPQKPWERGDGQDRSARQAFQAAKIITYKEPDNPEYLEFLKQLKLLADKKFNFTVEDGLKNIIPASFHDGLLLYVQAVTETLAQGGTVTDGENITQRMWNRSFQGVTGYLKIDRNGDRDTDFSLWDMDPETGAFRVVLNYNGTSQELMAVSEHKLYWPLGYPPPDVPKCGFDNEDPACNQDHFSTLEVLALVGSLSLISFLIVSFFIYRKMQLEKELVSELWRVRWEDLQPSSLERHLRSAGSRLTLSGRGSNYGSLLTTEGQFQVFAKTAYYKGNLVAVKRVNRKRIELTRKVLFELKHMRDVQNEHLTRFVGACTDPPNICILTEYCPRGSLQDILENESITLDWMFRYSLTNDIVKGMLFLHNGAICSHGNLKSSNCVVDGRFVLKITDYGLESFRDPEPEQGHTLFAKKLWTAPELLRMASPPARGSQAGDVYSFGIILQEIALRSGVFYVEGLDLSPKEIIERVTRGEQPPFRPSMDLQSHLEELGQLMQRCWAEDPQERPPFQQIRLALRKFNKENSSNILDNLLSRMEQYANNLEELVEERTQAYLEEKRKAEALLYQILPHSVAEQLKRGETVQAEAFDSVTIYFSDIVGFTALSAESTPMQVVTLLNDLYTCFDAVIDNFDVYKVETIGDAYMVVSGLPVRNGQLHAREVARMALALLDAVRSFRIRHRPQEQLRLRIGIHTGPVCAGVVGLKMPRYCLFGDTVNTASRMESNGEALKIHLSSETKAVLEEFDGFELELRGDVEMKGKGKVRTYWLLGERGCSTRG
Description: Effect of natriuretic peptide pre-treatment on ANP-stimulated (GC-A) cGMP accumulation in GH3 cells. It is filed as cell-based. The settings on record: 100 nM CNP pre-treatment 6 h, then 100 nM ANP plus 1 mM IBMX 15 min; Fig. 3d; ns, P > 0.05. Here is the method: Having established that GC-B signaling but not that of GC-A receptors, underwent rapid homologous desensitization, we next examined the effect of prolonged exposure of each receptor to its specific ligand. GH3 cells pre-treated with either ANP or CNP for 0 (control) to 6 h reduced the response to a subsequent 15-min treatment of ANP or CNP (with IBMX). […] The amount of cGMP measured from the 15-min pre-treatment sample was reduced by 39.6 ± 0.002 % (***P < 0.001). This effect was maintained up to the 6-h pre-treatment with CNP, which was reduced by 37.9 ± 7.1 % compared with the control (***P < 0.001).
Fig. 3 Effect of chronic exposure to CNP and ANP on GC-B- and GC-A-dependent cGMP accumulation in GH3 cells. Cells were initially treated with (a) 100 nM CNP or (b) 100 nM ANP in PSS without IBMX for 0 to 6 h. The medium was removed and replaced with 100 nM CNP (a) or 100 nM ANP (b) for 15 min in the presence of 1 mM IBMX. […]
In similar experiments designed to examine the effect of ANP pre-exposure to GC-A activity, a significant reduction in cGMP accumulation was observed within 30 min of ANP pre-treatment (by 28.9 ± 3.1 % compared with the control, *P < 0.05). […] In order to test the receptor specificity of the observed down-regulation of GC-B upon pre-treatment with CNP and of GC-A upon pre-treatment with ANP, the effects of ANP on GC-B and CNP on GC-A desensitization were determined. […]

Another assay concerns growth hormone secretion. The settings on record: ref Hartt et al. [1995]; Shimekake et al. [1994]; cited from earlier work. An excerpt:
Both humans and mice with mutations in the genes encoding either CNP or its receptor, GC-B, suffer from severe growth disorders (Chusho et al. [2001]) and, in some cases, growth hormone deficiency (Tamura et al. [2004]). Despite significant homology between the three natriuretic peptides and between their receptors, mutations in the genes encoding ANP, BNP, or GC-A fail to phenocopy CNP/GC-B-disrupted mice (Kishimoto et al. [2011]). Our recent observations of GC-B expression in normal fetal pituitary tissue and in a range of human pituitary adenomas (including those from acromegalics) strongly ...

As for `CC[C@H](C)[C@@H]1NC(=O)[C@H](CCCNC(=N)N)NC(=O)[C@H](CC(=O)O)NC(=O)[C@H](CC(C)C)NC(=O)[C@H](CCCCN)NC(=O)[C@H](CC(C)C)NC(=O)CNC(=O)[C@H](Cc2ccccc2)NC(=O)[C@@H](NC(=O)CNC(=O)[C@H](CCCCN)NC(=O)[C@H](CO)NC(=O)[C@H](CC(C)C)NC(=O)CN)CSSC[C@@H](C(=O)O)NC(=O)CNC(=O)[C@H](CC(C)C)NC(=O)CNC(=O)[C@H](CO)NC(=O)[C@H](CCSC)NC(=O)[C@H](CO)NC(=O)CNC1=O` [CNP, C-type natriuretic peptide], the agonist-induced internalization entry in the assay on GC-A and GC-B receptors was “does not appear to cause agonist-induced internalization”. Further, the “ANP-stimulated cGMP after CNP pre-treatment vs control” value on GC-A is reported as “not significantly different from the control samples”. The growth hormone secretion result with growth hormone secretion is “act as growth hormone secretogogs”.
